Results as given in patent EP0571593B1, “NEW NON IONIC IODIZED AGENTS FOR X-RAY CONTRASTING, METHOD FOR PREPARING THEM AND GALENICAL COMPOSITIONS CONTAINING THEM” (CENTRO INVESTIGACION JUSTESA IMAGEN S.A., priority 1991, dated 1993).

What was measured:
Assay type in all cases: physicochemical
[1] = Viscosity of aqueous solutions; conditions: 30°C, 300mg I/ml
[2] = Osmolality of aqueous solutions; conditions: 300mg I/ml
Iodine content = assay: Iodine content

| SMILES | Viscosity mPa s (30°C) at 300mg I/ml [1] | Osmolality mosm/kg at 300mg I/ml [2] | % Iodine (Iodine content) |
| --- | --- | --- | --- |
| CN(CC(=O)N(C)c1c(I)c(C(=O)NC(CO)C(O)CO)c(I)c(C(=O)NC(CO)C(O)CO)c1I)C(=O)c1c(I)c(NC(=O)CO)c(I)c(C(=O)NCC(O)CO)c1I (stereo not drawn) [EXAMPLE 8, N,N'-bis-(1-hydroxymethyl-2,3-dihydroxypropyl)-5-{3-[N-(2,3-dihydroxypropyl)carbamoyl]-5-hydroxyacetamido-2,4,6-triiodobenzoyl-N-methylaninoacetyl-N-nethylamino}-2,4,6-tri iodoisophthalamide] | 7,6 mPa s | 190 mosm/kg | 50% |
| O=C(CN(CC(O)CO)C(=O)c1c(I)c(NC(=O)CO)c(I)c(C(=O)NCC(O)CO)c1I)Nc1c(I)c(C(=O)NCC(O)CO)c(I)c(C(=O)NCC(O)CO)c1I (stereo not drawn) [EXAMPLE 13, N,N'-bis-(2,3-dihydroxypropyl)-5-{3-[N-(2,3-dihydroxypropyl)carbamoyl]-5-hydroxyacetamido-2,4,6-triiodobenzoyl-N-(2,3-dihydroxypropyl)aminoacetamido}-2,4,6-triiodoisophthalamide] | 7,2 mPa s | 190 mosm/kg | 50,5% |
| CC(=O)Nc1c(I)c(C(=O)NCC(O)CO)c(I)c(C(=O)N(C)CC(=O)N(C)c2c(I)c(C(=O)NCC(O)CO)c(I)c(C(=O)NCC(O)CO)c2I)c1I (stereo not drawn) [EXAMPLE 37, N,N'-bis-(2,3-dihydroxypropyl)-5-{3-[N-(2,3-dihydroxypropyl)carbamoyl]-5-acetamido-2,4,6-triiodobenzoyl-N-methylacetyl-N-methylamino}-2,4,6-triiodoisophthalamide] | 9,9 mPa s | 130 mosm/kg | 52,6% |
| COCCN(C(=O)CO)c1c(I)c(C(=O)NCC(=O)N(CCOC)c2c(I)c(C(=O)NCC(O)CO)c(I)c(C(=O)NCC(O)CO)c2I)c(I)c(C(=O)NCC(O)CO)c1I (stereo not drawn) [EXAMPLE 40, N,N'-bis-(2,3-dihydroxypropyl)-5-{3-[N-(2,3-dihydroxypropyl)carbamoyl]-5-hydroxyacetyl-N-(2-methoxyethyl)amino-2,4,6-triiodobenzoylaminoacetyl-N-(2-methoxyethyl)amino} -2,4,6-triiodoisophthalamide] | 10,2 mPa s | 160 mosm/kg | 49,1% |
| COCC(=O)Nc1c(I)c(C(=O)NCC(O)CO)c(I)c(C(=O)N(CC(=O)Nc2c(I)c(C(=O)NCC(O)CO)c(I)c(C(=O)NCC(O)CO)c2I)CC(O)CO)c1I (stereo not drawn) [EXAMPLE 15, N,N'-bis-(2,3-dihydroxypropyl)-5-{3-[N-(2,3-dihydroxypropyl)carbamoyl]-5-methoxyacetamido-2,4,6-triiodobenzoyl -N-(2,3-dihydroxypropyl)aminoacetamido}-2,4,6-triiodo isophthalamide] | 8,6 mPa s | 162 mosm/kg | 50% |
| CC(=O)Nc1c(I)c(C(=O)NCC(O)CO)c(I)c(C(=O)N(C)CC(=O)N(C)c2c(I)c(C(=O)N(CCO)CC(O)CO)c(I)c(C(=O)N(CCO)CC(O)CO)c2I)c1I (stereo not drawn) [EXAMPLE 42, N,N'-bis-(2-hydroxyethyl)-N,N'-bis-(2,3-dihydroxypropyl)-5-{3-[N-(2,3-dihydroxypropyl)carbamoyl]-5-acetamido-2,4,6-triiodobenzoyl-N-methylaminoacetyl-N-methylamino}-2,4,6-triiodoisophthalamide] | 8,8 mPa s | 180 mosm/kg | 49,6% |
| COCC(=O)Nc1c(I)c(C(=O)N(C)CC(=O)N(C)c2c(I)c(C(=O)NCC(O)CO)c(I)c(C(=O)NCC(O)CO)c2I)c(I)c(C(=O)N(CCO)CC(O)CO)c1I (stereo not drawn) [EXAMPLE 41, N,N'-bis-(2,3-dihydroxypropyl)-5-{3-[N-(2-hydroxyethyl)-N-(2,3-dihydroxypropyl)carbamoyl]-5-methoxyacetamido-2,4,6-triiodobenzoyl-N-methylaminoacetyl-N-methylamino} --2,4,6-triiodoisophthalamide] | 9,0 mPa s | 135 mosm/kg | 50,0% |
| COCC(=O)Nc1c(I)c(C(=O)NCC(O)CO)c(I)c(C(=O)N(CC(=O)N(C)c2c(I)c(C(=O)NCC(O)CO)c(I)c(C(=O)NCC(O)CO)c2I)CC(O)COC)c1I (stereo not drawn) [EXAMPLE 39, N,N'-bis-(2,3-dihydroxypropyl)-5-{3-[N-(2,3-dihydroxypropyl)carbamoyl]-5-methoxyacetamido-2,4,6-triiodobenzoyl--N-(2-hydroxy-3-methoxypropyl)aminoacetyl-N-methylamino} -2,4,6-triiodoisophthalamide] | 9,6 mPa s | 190 mosm/kg | 49,1% |
| CC(=O)Nc1c(I)c(C(=O)NCC(O)CO)c(I)c(C(=O)N(CC(=O)N(C)c2c(I)c(C(=O)NCC(O)CO)c(I)c(C(=O)NCC(O)CO)c2I)CC(O)CO)c1I (stereo not drawn) [EXAMPLE 23, N,N -bis-(2,3-dihydroxypropyl)-5-{3-[N-(2,3-dihydroxypropyl)carbamoyl]-5-acetamido-2,4,6-triiodobenzoyl-N-(2,3-dihydroxypropyl)aminoacetyl-N-methylamino}-2,4,6-triiodoisophthalamide] | 7,9 mPa s | 162 mosm/kg | 50,5% |
| CN(CC(O)CO)C(=O)c1c(I)c(NC(=O)CNC(=O)c2c(I)c(NC(=O)CO)c(I)c(C(=O)NCC(O)CO)c2I)c(I)c(C(=O)N(C)CC(O)CO)c1I (stereo not drawn) [EXAMPLE 2, N.N'-bis-(2,3-dihydroxypropyl)-N,N'-dimethyl-5-{3-[N-(2,3-dihydroxypropyl)carbamoyl]-5-hydroxyacetamido-2,4,6-triiodobenzoylaminoacetamido}-2,4,6-triiodoisophthalamide] | 8,4 mPa s | 166 mosm/kg | 52% |

More lines, now with the values ahead:

| Viscosity mPa s (30°C) at 300mg I/ml [1] | Osmolality mosm/kg at 300mg I/ml [2] | % Iodine (Iodine content) | SMILES |
| --- | --- | --- | --- |
| 7,2 mPa s | 310 mosm/kg | 51,6% | COCC(=O)Nc1c(I)c(C(=O)NCC(=O)Nc2c(I)c(C(=O)N(C)CC(O)CO)c(I)c(C(=O)N(C)CC(O)CO)c2I)c(I)c(C(=O)NCC(O)CO)c1I (stereo not drawn) [EXAMPLE 1, N,N'-bis-(2,3-dihydroxypropyl)-N,N'-dimethyl-5-{3-[N-(2,3-dihydroxypropyl)carbamoyl]-5-methoxyacetamido-2,4,6-triiodobenzoylaminoacetamido}-2,4,6-triiodoisophthalamide] |
| 8,2 mPa s | 214 mosm/kg | 49,1% | COCC(=O)N(CCO)c1c(I)c(C(=O)NCC(O)CO)c(I)c(C(=O)N(C)CC(=O)N(CCO)c2c(I)c(C(=O)NCC(O)CO)c(I)c(C(=O)NCC(O)CO)c2I)c1I (stereo not drawn) [EXAMPLE 35, N,N'-bis-(2,3-dihydroxypropyl)-5-{3-[N-(2,3-dihydroxypropyl)carbamoyl]-5-methoxyacetyl-N-(2-hydroxyethyl)amino-2,4,6-triiodobenzoyl-N-methylaminoacetyl-N-(2-hydroxyethyl)amino}-2,4,6 triiodoisophthalamide] |
| 7,7 mPa s | 145 mosm/kg | 51,6% | CN(CC(O)CO)C(=O)c1c(I)c(C(=O)N(C)CC(O)CO)c(I)c(N(C)C(=O)CNC(=O)c2c(I)c(NC(=O)CO)c(I)c(C(=O)NCC(O)CO)c2I)c1I (stereo not drawn) [EXAMPLE 26, N,N'-bis-(2,3-dihydroxypropyl)-N,N'-dimethyl-5-{3-[N-(2,3-dihydroxypropyl)carbamoyl]-5-hydroxyacetamido-2,4,6-triiodobenzoylaminoacetyl-N-methylamino}-2,4,6-triiodoiso phthalamide] |
| 8,0 mPa s | 140 mosm/kg | 50,6% | COCC(=O)Nc1c(I)c(C(=O)NCC(O)CO)c(I)c(C(=O)N(C)CC(=O)N(C)c2c(I)c(C(=O)N(C)CC(O)CO)c(I)c(C(=O)N(C)CC(O)CO)c2I)c1I (stereo not drawn) [EXAMPLE 25, N,N'-bis-(2,3-dihydroxypropyl)-N,N'-dimethyl-5-{3-[N-(2,3-dihydroxypropyl)carbamoyl]-5-methoxyacetamido-2,4,6-triiodobenzoyl-N-methylaminoacetyl-N-methylamino}-2,4,6-triiodo isophthalamide] |
| 8,6 mPa s | 130 mosm/kg | 51,6% | COCC(=O)Nc1c(I)c(C(=O)NCC(O)CO)c(I)c(C(=O)N(C)CC(=O)N(C)c2c(I)c(C(=O)NCC(O)CO)c(I)c(C(=O)NCC(O)CO)c2I)c1I (stereo not drawn) [EXAMPLE 12, N,N'-bis-(2,3-dihydroxypropyl)-5-{3-[N-(2,3-dihydroxypropyl)carbamoyl]-5-methoxyacetamido-2,4,6-triiodobenzoyl -N-methylaminoacetyl-N-methylamino}-2,4,6-triiodoisophthalamide] |
| 10,2 mPa s | 119 mosm/kg | 50,5% | COCC(=O)Nc1c(I)c(C(=O)NCC(=O)Nc2c(I)c(C(=O)N(C)CC(O)CO)c(I)c(C(=O)N(C)CC(O)CO)c2I)c(I)c(C(=O)NC(CO)C(O)CO)c1I (stereo not drawn) [EXAMPLE 5, N,N'-bis-(2,3-dihydroxypropyl)-N,N'-dimethyl-5-{3-[N-(1-hydroxymethyl-2,3-dihydroxypropyl)carbamoyl]-5-methoxyacetamido-2,4,6-triiodobenzoylaminoacetamido}-2,4,6-triiodoisophthalamide] |
